One compound from patent publication US6780421B1, “Adjuvant for a vaccine composition” (priority 1997, dated 2004) can be followed below.

Each structure is given as a SMILES string.

In test [1] the test system is strain A/Singapore monovalent influenza vaccine. Put plainly: Immunization by combined subcutaneous and intranasal administration. In kind it is in vivo, BALB/c mice. Here is the method: Two groups of 4 BALB/c mice are immunized twice with an interval of 4 weeks with, on each occasion, the following vaccine compositions:
Group 3 (G3):—a vaccine composition of 300 μl injected subcutaneously comprising 4 μg of HA (in the form of strain A/Singapore monovalent influenza vaccine) combined with […] of DC chol (in the form of DC chol/DOPC liposomes), and
a vaccine composition of 50 μl administered intranasally comprising 0.25 μg of HA (in the form of strain A/Singapore monovalent influenza vaccine) combined with 6 μg of DC chol (in the form of DC chol/DOPC liposomes),
Group 4 (G4):—a vaccine composition of 300 μl injected subcutaneously comprising 4 μg of HA combined with 200 μg of DC chol, and
a vaccine composition of 50 μl administered intranasally comprising 0.25 μg of HA combined with 200 μg of DC chol.
The sera of the immunized mice are sampled 3 weeks after the booster administration and, for each mouse, the level of neutralizing antibodies is assayed by the HAI haemagglutination inhibition technique.

For test [2] the test system is unchanged. The experiment in a line: Immune response (HAI) as a function of the dose of DC chol. In kind it is in vivo, female Balb/c mice. The conditions noted are these: DC chol/DOPC liposomes, injected D0 and D28, sera D42.
Test [3] concerns trivalent influenza vaccine comprising strain A/Texas, strain B/Panama and strain A/Beijing. Put plainly: Tests with a trivalent influenza vaccine. It is filed as in vivo.
For test [4], the system named is influenza virus (Strain A/Singapore). Put plainly: Anti-HA antibody titration by inhibition of influenza virus-induced haemagglutination after subcutaneous immunization. It is filed as in vivo, Balb/c mice. The conditions noted are these: 5 μg of HA, in comparison with mice which received the vaccine without adjuvant (Group A). Here is the method: 5 groups of 4 Balb/c mice are immunized by 3 subcutaneous injections performed on D0, D21 and D36 with the following vaccine compositions:
Group A: 0.3 ml of diluted strain A/Singapore monovalent influenza vaccine containing 5 μg of HA in 0.3 ml of PBS,
Group B: 0.3 ml of vaccine composition obtained according to Example 2,
Group C: 0.3 ml of vaccine composition obtained according to Example 3,
Group D: 0.3 ml of vaccine composition obtained according to Example 6,
Group E: 0.3 ml of vaccine composition obtained according to Example 7.
In order to perform the assays for neutralizing antibodies, the sera of mice are sampled on D21, D36 and […], and the titration of anti-HA antibodies is performed by means of the technique of inhibition of influenza virus-induced haemagglutination.
The titres of neutralizing antibodies in the mouse sera are presented in the form of log2 of the highest dilution inducing haemagglutination inhibition.

The subject of test [5] is strain A/Singapore monovalent influenza vaccine. The experiment in a line: Induction of antibody isotypes IgG1 and IgG2 (ELISA) in adult mice. The conditions noted are these: 400 μg of DC chol with DOPC. In kind it is in vivo, 8- to 10-week-old female BALB/c adult mice. (In general: ELISA stands for enzyme-linked immunosorbent assay.)
The test system is the same in test [6]. Put plainly: Induction of antibody isotypes (ELISA) in elderly mice. In kind it is in vivo, 20 to 22-month-old mice. The conditions noted are these: primary and secondary response. Here is the method:
The same experiment is carried out exactly as in Example 12 but, in this instance, the mice tested are 20 to 22-month-old mice which are more difficult to stimulate.

For the compound `CC(C)CCC[C@@H](C)[C@H]1CC[C@H]2[C@@H]3CC=C4C[C@@H](OC(=O)NCCN(C)C)CC[C@]4(C)[C@H]3CC[C@]12C` [DC chol, 3β-[N-(N′,N′-dimethylaminoethane)-carbamoyl]cholesterol], in test [1] (6 versus 200 μg of DC chol), the “number of cells secreting IgG and IgA in the lungs (ELISPOT): dose effect” value was “identical dose effect”; the “ratio of specific IgG (or IgA) to total IgG (or IgA) in nasopharyngeal lavage fluids: dose effect” value is “identical dose effect”; the “serum IgG measured by ELISA: dose effect” value was “identical dose effect”. The “level of neutralizing antibodies (HAI): effect of the dose of DC chol” value in test [1] (dose of DC chol from 6 to 200 μg, mixed subcutaneous and intranasal) is “enables the immune response to be increased”. Moreover, in test [1] (mixed subcutaneous and intranasal administration), the “level of neutralizing antibodies (HAI): adjuvant effect” value is on record as “adjuvant effect”. The “dose of DC chol at which the maximum benefit of the adjuvant effect is obtained (HAI titre)” value in test [2] was “above 100 μg of DC chol/dose”. In test [3], the “adjuvant power with trivalent influenza vaccine” value was “adjuvant power”. Moreover, the “level of anti-HA antibodies (HAI)” value in test [4] is listed as “markedly higher”. Also, the “IgG2a produced (ELISA)” value in test [5] was “large increase”. The “adjuvant effect on IgG1 and IgG2 produced (ELISA)” value in test [5] (primary and secondary response, in comparison to aluminium hydroxide) is recorded as “adjuvant effect”. The “adjuvant effect on IgG1 and IgG2 produced (ELISA), in particular IgG2a” value in test [6] was “adjuvant effect”.
